Patent US11447486B2, “2-amino-benzimidazole derivatives and their use as 5-lipoxygenase and/or prostaglandin E synthase inhibitors” (INSTITUT PASTEUR KOREA, priority 2014, dated 2022)

Tests used:
Rat whole blood (RWB) = test: LTB4 secretion assay in RWB (rat whole blood); type: cell-based; conditions: Rattus norvegicus
Method: Rat blood was drawn from caudal vena cava from male Sprague Dawley rat (6-9 weeks old) in vacuette coated with sodium heparin (Greiner bio-one, Cat #455051). The blood was pooled and diluted with RPMI (WelGENE, Cat #LM 011-05) to 1:1. The diluted blood was aliquoted into 96 well plate (200 ul per well) and compounds were added in dose response to a desired concentration ranging from 2.5 nM to 50 uM. After 15 min of pre-incubation at 37° C., calcium ionophore (A23187) was added to the final concentration of 10 uM. After 10 min of further incubation at 37° C., the LTB4 production was stopped by diluting the reaction mixture with ice cold PBS (1:4 dilutions). Cells were removed by centrifugation at 1000×g, 4° C. for 10 min, and the supernatant was transferred and then the quantification of LTB4 was done with Leukotriene B4 EIA kit (Cayman, Cat #520111) as instructed.

human 5-LOX = molecular target: T1, human 5-LOX (Homo sapiens, UniProt P09917); test: 5-LOX enzyme activity, fluorescence method (5-HPETE, H2DCFDA); type: biochemical; conditions: read-out: 5-LO (IC50)
T1 construct: purchased Cayman 60402; host or cells: insect cells (lysate)
T1 sequence (P09917 1-674): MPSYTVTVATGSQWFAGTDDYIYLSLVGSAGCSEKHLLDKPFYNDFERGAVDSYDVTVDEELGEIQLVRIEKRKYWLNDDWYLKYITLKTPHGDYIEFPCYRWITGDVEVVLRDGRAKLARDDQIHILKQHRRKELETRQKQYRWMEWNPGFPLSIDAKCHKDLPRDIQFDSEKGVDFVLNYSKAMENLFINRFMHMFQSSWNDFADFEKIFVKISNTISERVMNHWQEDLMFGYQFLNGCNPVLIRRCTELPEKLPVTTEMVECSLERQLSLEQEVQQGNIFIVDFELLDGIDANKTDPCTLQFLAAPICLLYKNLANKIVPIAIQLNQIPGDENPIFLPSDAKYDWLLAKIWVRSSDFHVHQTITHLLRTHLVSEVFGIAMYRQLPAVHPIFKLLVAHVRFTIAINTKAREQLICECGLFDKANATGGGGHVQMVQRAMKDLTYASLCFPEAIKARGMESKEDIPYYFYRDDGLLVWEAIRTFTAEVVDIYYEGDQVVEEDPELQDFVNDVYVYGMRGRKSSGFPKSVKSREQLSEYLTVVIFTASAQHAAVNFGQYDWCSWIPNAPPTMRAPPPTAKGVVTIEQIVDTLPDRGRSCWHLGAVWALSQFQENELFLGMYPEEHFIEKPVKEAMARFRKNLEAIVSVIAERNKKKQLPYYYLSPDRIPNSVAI
How it was run: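 Compound (0.5 nM to 10 uM) pre-incubated 5 min with enzyme; reaction started with ATP (100 uM final) and arachidonic acid (3 uM final). All steps at room temperature, fluorescence read-out.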

[1] = test system: Rat basophilic leukemia (RBL) cells; test: LTB4 secretion assay in RBL (rat basophilic leukemia cells); type: cell-based; conditions: Rattus norvegicus, RBL
How it was run: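 Cells seeded 2×10^4/well the day before, then pre-incubated 15 min at 37 °C in EMEM/0.5% FBS with compound (5 nM to 100 uM). Stimulation with 2.5 uM arachidonic acid plus 5 uM A23187 (final) for 10 min at 37 °C; LTB4 in supernatant quantified by EIA.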

Row | EC50 (Rat whole blood (RWB)) | IC50 (human 5-LOX) | EC50 [1] | Structure (SMILES)
1 | < 10 µM | < 1 µM | < 10 µM | Clc1ccc(Oc2ccc(CNc3nc4cc(NCc5ccccn5)ccc4[nH]3)cc2)cc1 [Compound 149]
2 | > 20 µM | < 1 µM | < 10 µM | CC(Nc1ccc2nc(N(C)C)[nH]c2c1)c1ccc(Oc2ccc(OC(F)(F)F)cc2)nc1 (stereo not drawn) [Compound 150]
3 | 10 to 20 µM | < 1 µM | < 10 µM | CC(Nc1ccc2nc(N(C)C)[nH]c2c1)c1ccc(Oc2ccc(Cl)cn2)cc1 (stereo not drawn) [Compound 152]
4 | > 20 µM | < 1 µM | > 20 µM | Nc1ccc2nc(NCc3ccc(Oc4ncccn4)cc3)[nH]c2c1 [Compound 154]
5 | < 10 µM | < 1 µM | < 10 µM | Nc1ccc2nc(NCCO)n(Cc3ccc(Oc4ccc(Cl)cc4)cc3)c2c1 [Compound 155]
6 | > 20 µM | < 1 µM | < 10 µM | Nc1ccc2[nH]c(N3CCC(Oc4ccc(Cl)cn4)C3)nc2c1 (stereo not drawn) [Compound 160]
7 | 10 to 20 µM | < 1 µM | < 10 µM | Nc1ccc2nc(NC3CCCC3)n(Cc3ccc(Oc4ccc(Cl)cc4)cc3)c2c1 [Compound 161]
8 | > 20 µM | < 1 µM | < 10 µM | Nc1ccc2[nH]c(NCc3ccc(-c4ccc(Cl)cn4)cc3)nc2c1 [Compound 164]
9 | < 10 µM | < 1 µM | < 10 µM | CC(C)(O)CNc1nc2ccc(N)cc2n1Cc1ccc(Oc2ccc(Cl)cc2)cc1 [Compound 165]
10 | < 10 µM | < 1 µM | < 10 µM | Clc1ccc(Oc2ccc(CNc3nc4cc(NC5COC5)ccc4[nH]3)cc2)nc1 [Compound 166]
11 | 10 to 20 µM | < 1 µM | < 10 µM | CC(CC(F)(F)F)Oc1ccc(CNc2nc3ccc(N)cc3[nH]2)cc1 (stereo not drawn) [Compound 172]
12 | > 20 µM | < 1 µM | < 10 µM | Nc1ccc2nc(NCc3coc(-c4ccc(Cl)cc4)n3)[nH]c2c1 [Compound 175]
13 | < 10 µM | < 1 µM | < 10 µM | Nc1ccc2nc(NCc3ccc(OCCC(F)(F)F)cc3)[nH]c2c1 [Compound 176]
14 | < 10 µM | < 1 µM | < 10 µM | CC(C)(Nc1ccc2[nH]c(NCc3ccc(Oc4ccc(Cl)cn4)cc3)nc2c1)C(N)=O [Compound 177]
15 | < 10 µM | < 1 µM | < 10 µM | Cn1c(NCc2ccc(Oc3ccc(Cl)cc3)cc2)nc2ccc(NC3COC3)cc21 [Compound 184]
16 | > 20 µM | < 1 µM | < 10 µM | CN(C)c1nc2ccc(N3CCC(C(=O)c4ccc(OC(F)(F)F)cc4)C3)cc2[nH]1 (stereo not drawn) [Compound 190]
17 | > 20 µM | < 1 µM | < 10 µM | COc1c(NC(C)c2ccc(Oc3ccc(OC(F)(F)F)cc3)cc2)ccc2[nH]c(N(C)C)nc12 (stereo not drawn) [Compound 191]
18 | < 10 µM | > 10 µM | < 10 µM | Cn1c(NCc2ccc(Oc3ccc(Cl)cc3)cc2)nc2ccc(N3CC(F)(F)C3)cc21 [Compound 193]
19 | 10 to 20 µM | < 1 µM | < 10 µM | CN(C)c1nc2cc(NCc3ccc(-c4ccnn4C)cc3)ccc2[nH]1 [Compound 196]
20 | > 20 µM | < 1 µM | < 10 µM | CN(C)c1nc2ccc(NCc3ccc(-c4ccc(Cl)cn4)cc3)cc2[nH]1 [Compound 197]
21 | < 10 µM | < 1 µM | < 10 µM | Nc1ccc2c(c1)nc(N)n2Cc1ccc(Oc2ccc(Cl)cn2)cc1 [Compound 199]
22 | > 20 µM | < 1 µM | < 10 µM | CN(C)c1nc2cc(N3CCC(Oc4ccncc4)C3)ccc2[nH]1 (stereo not drawn) [Compound 202]
23 | > 20 µM | < 1 µM | < 10 µM | CC(C)(O)Cn1c(NCc2ccc(Oc3ccc(Cl)cn3)cc2)nc2ccc(N)cc21 [Compound 203]
24 | < 10 µM | < 1 µM | < 10 µM | OCCNc1nc2ccc(NC3COC3)cc2n1Cc1ccc(Oc2ccc(Cl)cc2)cc1 [Compound 204]

Row | EC50 (Rat whole blood (RWB)) | IC50 (human 5-LOX) | EC50 [1] | Structure (SMILES)
25 | > 20 µM | < 1 µM | < 10 µM | CNc1nc2ccc(N)cc2n1Cc1ccc(Oc2ccc(Cl)cc2)cc1 [Compound 219]
26 | < 10 µM | < 1 µM | < 10 µM | Cn1c(NCc2ccc(Oc3cccnc3)cc2)nc2ccc(NC3COC3)cc21 [Compound 227]
27 | < 10 µM | < 1 µM | < 10 µM | CNc1nc2ccc(N)cc2n1Cc1ccc(Oc2ccc(Cl)cn2)cc1 [Compound 229]
28 | < 10 µM | < 1 µM | < 10 µM | Nc1nc2ccc(NC3COC3)cc2n1Cc1ccc(Oc2ccc(Cl)cc2)cc1 [Compound 231]
29 | < 10 µM | < 1 µM | < 10 µM | CN(C)c1nc2ccc(NCc3ccc(OCc4ncco4)cc3)cc2[nH]1 [Compound 233]
30 | < 10 µM | < 1 µM | < 10 µM | Nc1nc2ccc(NC3COC3)cc2n1Cc1ccc(Oc2ccc(Cl)cn2)cc1 [Compound 234]
31 | < 10 µM | < 1 µM | < 10 µM | Nc1ccc2nc(N)n(Cc3ccc(Oc4ccc(Cl)nc4)cc3)c2c1 [Compound 238]
32 | < 10 µM | < 1 µM | < 10 µM | Nc1ccc2nc(N)n(Cc3ccc(Oc4ccc(Cl)cc4)cn3)c2c1 [Compound 239]
33 | > 20 µM | < 1 µM | < 10 µM | CN(C)c1nc2ccc(NCc3ccc(C4(C#N)CCOCC4)cc3)cc2[nH]1 [Compound 241]
34 | < 10 µM | < 1 µM | < 10 µM | Nc1ccc2nc(N)n(Cc3ccc(Oc4ccc(C(F)(F)F)cn4)cc3)c2c1 [Compound 243]
35 | 10 to 20 µM | > 10 µM | < 10 µM | Nc1ccc2nc(N)n(Cc3ccc(Oc4ccc(OC(F)(F)F)cc4)cc3)c2c1 [Compound 245]
36 | < 10 µM | < 1 µM | < 10 µM | Nc1ccc2nc(N)n(Cc3ccc(COc4ccc(Cl)cn4)cc3)c2c1 [Compound 249]
37 | < 10 µM | < 1 µM | < 10 µM | OCCNc1nc2ccc(NC3COC3)cc2n1Cc1ccc(Oc2ccc(Cl)cn2)cc1 [Compound 251]
38 | < 10 µM | < 1 µM | < 10 µM | CN(C)c1ccc2nc(NCc3ccc(Oc4ccc(Cl)cn4)cc3)n(C)c2c1 [Compound 253]
39 | < 10 µM | < 1 µM | 10 to 20 µM | CC(Nc1nc2ccc(NC3COC3)cc2n1C)c1ccc(Oc2ccc(Cl)cn2)cc1 (stereo not drawn) [Compound 256]
40 | < 10 µM | < 1 µM | < 10 µM | Cn1c(NCc2ccc(Oc3ccc(Cl)cn3)c(F)c2)nc2ccc(NC3COC3)cc21 [Compound 268]
41 | < 10 µM | < 1 µM | < 10 µM | COCCn1c(NCc2ccc(Oc3ccc(Cl)cn3)cc2)nc2ccc(NC3COC3)cc21 [Compound 269]
42 | < 10 µM | < 1 µM | < 10 µM | CCn1c(NCc2ccc(Oc3ccc(Cl)cn3)cc2)nc2ccc(NC3COC3)cc21 [Compound 270]
43 | < 10 µM | < 1 µM | < 10 µM | CC(C)n1c(NCc2ccc(Oc3ccc(Cl)cn3)cc2)nc2ccc(NC3COC3)cc21 [Compound 271]
44 | 10 to 20 µM | < 1 µM | < 10 µM | Cn1c(NCc2ccc(Oc3ccc(Cl)cn3)cc2F)nc2ccc(NC3COC3)cc21 [Compound 273]
45 | < 10 µM | < 1 µM | < 10 µM | CCC(Nc1nc2ccc(NC3COC3)cc2n1C)c1ccc(Oc2ccc(Cl)cn2)cc1 (stereo not drawn) [Compound 275]
46 | < 10 µM | < 1 µM | < 10 µM | CN(c1ccc2nc(NCc3ccc(Oc4ccc(Cl)cn4)cc3)n(C)c2c1)C1COC1 [Compound 277]
47 | < 10 µM | 1 to 10 µM | < 10 µM | FC(F)(F)CCNc1nc2ccc(NC3COC3)cc2n1Cc1ccc(Oc2ccc(Cl)cc2)cc1 [Compound 279]
